The source of these data is patent publication US20090227492A1, “TREATMENT OF NEUROLOGICAL CONDITIONS USING COMPLEMENT C5a RECEPTOR MODULATORS” (priority 2004, published 2009).

Bridge positions count the residues as written; N and C are the ends. Square brackets hold non-standard residues; d marks the D form. Peptide text beside a SMILES is read from it. * marks the point of attachment. Hydrocinnamoyl = O=C(CCc1ccccc1)*; Cit = NC(=O)NCCC[C@H](N)C(=O)O; dCha = N[C@H](CC1CCCCC1)C(=O)O; Orn = NCCC[C@H](N)C(=O)O

Series [1] has as its system 3-NP rat model. Briefly: 3-NP rat model (3-nitropropionic acid neurotoxicity). Type of series: in vivo. As for the experimental part:
Unless otherwise stated, the protocol for induction of 3-NP neurotoxicity employed in the present study was similar to that of Blum et al (2001; 2002), except that we used 42 mg/kg/day for 7 days rather than 56 mg/kg for 5 days. Briefly, a 90 mg/mL solution of 3-NP in PBS (0.1 M, pH 7.4) was prepared and adjusted to pH 7.4 with 5M NaOH. Alzet osmotic mini-pumps (model 2ML1, delivering 10 μL/hr for 7 days) filled with this solution were implanted into 12 week old male Lewis rats, so that each rat received exactly 42 mg/kg/day.
Rats were housed in individual cages. The rats were anaesthetised with ketamine, xylazine and zolazapam. A pump was inserted s.c. into the back of each rat via an incision between the scapulae, and the incision closed with wound clips. Following recovery from anaesthesia, food intake, body weight and neurological were evaluated daily over the next 7 days. Neurological and behavioural evaluation according to standard criteria was also performed at several points by an observer blinded to the identity of the groups.
After completion of the study, rats were deeply anaesthetised with xylazine and ketamine. The rats were then perfused with approximately 100 mL of sodium nitrite solution to remove blood, followed by approximately 400 mL of formaldehyde solution to fix the brains in situ. Brains were then carefully removed and stored in formaldehyde solution for at least 3 days, before processing for histology. Slides were stained with cresyl violet and examined by light microscopy. […]
PMX53 (10 mg/kg/day) and PMX205 (10 mg/kg/day) were administered daily by gavage and ibuprofen (30 mg/kg/day) administered in the drinking water, beginning 2 days prior to 3-NP administration. Infliximab was administered as a single 5 mg/kg i.v. infusion on Day 0. […]

The subject of series [2] is Transgenic Sprague-Dawley rats carrying mutant SOD-1 gene. Briefly: transgenic SOD-1 rat model of ALS. It is filed as in vivo. To be noted: approximately 1 mg/kg/day in drinking water from 70 days of age; for average age of onset of loss of motor function: male rats, untreated 116+/−4 days; for percent survival over time (mortality) / percentage of rats showing onset of motor symptoms over time: vs untreated.
Description: Treatment commenced when the rats were 70 days of age. Drugs were dosed in the drinking water at approximately 1 mg/kg/day. A group of 3 wild type (WT) Sprague-Dawley rats (G63) were included as sham control animals. Rats were then monitored daily for signs of motor disturbance, using the following scale:
Body weights were also recorded daily. Rats were euthanised when they reached a score of 4 for the righting response, or had lost >20% of their peak body weight.

Series [3] deals with 3-NP rat model. Briefly: histological and histochemical examination of rat brain sections from the 3-NP model (naphthyl esterase, TUNEL). Type of series: in vivo. Conditions: brain sections of rats of Example 2. The source says: Paraffin sections of brain tissue from the rats used in Example 2 were stained with hematoxylin and eosin and examined under the microscope. […] The TUNEL (TdT-mediated dUTP Nick-End Labeling) assay (Gavrieli, Y., et al. (1992) J. Cell. Biol. 119, 493.) measures nuclear DNA fragmentation, which is an important biochemical hallmark of apoptosis. […] Brain sections were therefore also stained for TUNEL analysis using a standard kit (ApopTag Plus/TUNEL method; Chemicon). Striatal sections of brains containing the area of interest were fixed to a slide and deparaffinized. Slides were then pretreated with Proteinase K (20 μg/mL), and endogenous peroxidases quenched with 3% hydrogen peroxide. Equilibration buffer was then added, followed by TdT enzyme for 1 hour. Samples were then washed, and anti-digoxigenin conjugate added for 30 min. Peroxidase substrate (diaminobenzidine) was then added, and colour allowed to develop over 6 min. Samples were then counterstained with 0.5% methyl green and mounted with Permount. Sections were washed in PBS (0.1 M, ph 7.4) in between each step.

A short description of series [4]: levels of PMX compounds in brain and plasma following i.v. injection (blood-brain barrier). Conditions: female Wistar rats; 3 mg/kg i.v.; 15 min; brain perfused with saline.
Description: Rats were then left for 15 min, at which point a sample of blood was taken from the tail for plasma collection, and rats were then perfused via cardiac puncture with 150 mL of saline to remove blood from the brain. The brain was then dissected out. Plasma and brain samples of were prepared for pharmacokinetic analysis, and the levels of PMX compounds determined in each sample.
Setting [5] is: Example 2, PMX53, PMX205 10 mg/kg/day gavage, ibuprofen 30 mg/kg/day drinking water, infliximab 5 mg/kg i.v. Day 0, 7 days.

As to `N=C(N)NCCC[C@@H]1NC(=O)[C@H](Cc2c[nH]c3ccccc23)NC(=O)[C@@H](CC2CCCCC2)NC(=O)[C@@H]2CCCN2C(=O)[C@@H](NC(=O)CCc2ccccc2)CCCNC1=O` [PMX205, Hydrocinnamate-[OpdChaWR]] (Hydrocinnamoyl-[Orn]P[dCha]WR; lactam 1-C), the neurological/behavioural score result in the series with 3-NP rat model [1] (setting [5]) is “significant protection”. In series [2], the “period between the first loss of body weight and the first observable loss of motor function” value is given as “particularly striking”; the “average age of onset of loss of motor function” value was determined as 138 ± 7 days; the “percent survival over time (mortality)” value is reported as “clear delay of mortality”; the “percentage of rats showing onset of motor symptoms over time” value is recorded as “clear delay of motor onset”. Besides, in the series with 3-NP rat model [3], the “degree of apoptosis (TUNEL)” value is “reduced the degree of apoptosis” and the “neutrophil infiltration (naphthyl esterase stain)” value is recorded as “completely prevented neutrophil infiltration”.
As to `NC(=O)NCCC[C@@H]1NC(=O)[C@H](Cc2c[nH]c3ccccc23)NC(=O)[C@@H](CC2CCCCC2)NC(=O)[C@@H]2CCCN2C(=O)[C@@H](NC(=O)CCc2ccccc2)CCCNC1=O` [PMX200, HC-[OPdChaWCit]] (Hydrocinnamoyl-[Orn]P[dCha]W[Cit]; lactam 1-C), in series [4], the “levels in the brain as a percentage of the levels in the blood (absorption into the brain)” value is recorded as “lower degree of absorption”.
In the case of `CC(C)Cc1ccc(C(C)C(=O)O)cc1` (stereo not drawn) [ibuprofen, reference compound], the neurological/behavioural score result in the series on 3-NP rat model [1] (setting [5]) is on record as “an effect only up to Day 5”.
Take `CC(=O)N[C@@H](Cc1ccccc1)C(=O)N[C@H]1CCCNC(=O)[C@H](CCCNC(=N)N)NC(=O)[C@H](Cc2c[nH]c3ccccc23)NC(=O)[C@@H](CC2CCCCC2)NC(=O)[C@@H]2CCCN2C1=O` [PMX53, AcPhe[Orn-Pro-D-Cyclohexylalanine-Trp-Arg]]: the “loss of body weight” value with 3-NP rat model [1] (Example 1 pilot, 2 mg/kg daily in drinking water plus 1 mg/kg s.c. Days 0, 3, 6, 8, Days 5-7, P<0.05, n=5, vs untreated) was “significantly less loss of body weight”. Also, the neurological/behavioural score result in the series on 3-NP rat model [1] (Example 1 pilot, 2 mg/kg daily in drinking water plus 1 mg/kg s.c., Days 4-9, P<0.05, n=5, vs untreated) is “significantly decreased neurological/behavioural scores”. In addition, the food intake entry with 3-NP rat model [1] (Example 1 pilot, 2 mg/kg daily in drinking water plus 1 mg/kg s.c., Days 5-7, P<0.05, n=5, vs untreated) is recorded as “significantly greater food intake”. Further, the “necrotic cells in the striatal regions (cresyl violet histology)” value in the series with 3-NP rat model [1] (Example 1 pilot, vs controls) is given as “fewer necrotic cells”. In addition, in the series with 3-NP rat model [1] (Example 2, 10 mg/kg/day gavage, day 7), the “necrotic cells in the striatal regions (cresyl violet histology)” value is recorded as “fewer necrotic cells”. The neurological/behavioural score entry in the series on 3-NP rat model [1] (setting [5]) is reported as “significant protection”. Moreover, in series [2], the “average age of onset of loss of motor function” value came out at 124 ± 10 days, the “percent survival over time (mortality)” value is listed as “possibly a small improvement” and the “percentage of rats showing onset of motor symptoms over time” value is “possibly a small improvement”. For the same compound, in the series on 3-NP rat model [3], the “degree of apoptosis (TUNEL)” value was “reduced the degree of apoptosis” and the “neutrophil infiltration (naphthyl esterase stain)” value is “completely prevented neutrophil infiltration”.
Consider infliximab [reference compound], for which the neurological/behavioural score result with 3-NP rat model [1] (setting [5]) is on record as “little if any effect”.
